# Experimental data taken from ChEMBL document CHEMBL5725290, “IRE-1α inhibitors” (2017).
# Target: Serine/threonine-protein kinase/endoribonuclease IRE1 (Homo sapiens, UniProt O75460)
# Assay: IRE-1alpha Assay: A fusion protein comprising glutathione S transferase (GST) and human IRE-1α (GST-IRE-1α) obtained from a 500 ml baculovirus-infected insect cell culture can be used to measure IRE-1α activity in vitro. Five μl of a reaction mixture comprising 1× reaction buffer (5× reaction buffer is 100 mM Hepes pH 7.5, 250 mM KOAc, 2.5 mM MgCl2), 3 mM DTT, and 0.4% polyethylene glycol water is added to each well of 384 well plates. Twenty-five nanoliters of a 1 mM test compound solution are added to test wells. Three μl of a 128 ng/ml IRE-1α preparation are added to each test well and to positive control wells (final concentration 5.82 ng/well). Negative control wells contain only reaction mixture and test compound. After spinning the plates at 1200 rpm for 30 seconds, 3 μl of an IRE-1α human mini-XBP-1 mRNA stem-loop substrate 5'-[…]-3' (SEQ ID NO:1), labeled with the fluorescent dye Cy5 at the 5' end and Black Hole Quencher 2 (BH2) at the 3' end, are added to each well of a control plate. The plates are again spun at 1200 rpm for 30 seconds. Final concentrations for the assay are: 63 nM IRE-1α substrate, 5.82 ng IRE-1α protein, and 2.5 μM test compound. The plates are covered with lids and incubated for one hour at 30° C. The plates are then transferred to an ACQUEST™ microplate reader. Data is analyzed using data analysis software, and the percent activity of IRE-1α is calculated.
# Sequence of Serine/threonine-protein kinase/endoribonuclease IRE1 (O75460 whole entry, the tested form may be a part): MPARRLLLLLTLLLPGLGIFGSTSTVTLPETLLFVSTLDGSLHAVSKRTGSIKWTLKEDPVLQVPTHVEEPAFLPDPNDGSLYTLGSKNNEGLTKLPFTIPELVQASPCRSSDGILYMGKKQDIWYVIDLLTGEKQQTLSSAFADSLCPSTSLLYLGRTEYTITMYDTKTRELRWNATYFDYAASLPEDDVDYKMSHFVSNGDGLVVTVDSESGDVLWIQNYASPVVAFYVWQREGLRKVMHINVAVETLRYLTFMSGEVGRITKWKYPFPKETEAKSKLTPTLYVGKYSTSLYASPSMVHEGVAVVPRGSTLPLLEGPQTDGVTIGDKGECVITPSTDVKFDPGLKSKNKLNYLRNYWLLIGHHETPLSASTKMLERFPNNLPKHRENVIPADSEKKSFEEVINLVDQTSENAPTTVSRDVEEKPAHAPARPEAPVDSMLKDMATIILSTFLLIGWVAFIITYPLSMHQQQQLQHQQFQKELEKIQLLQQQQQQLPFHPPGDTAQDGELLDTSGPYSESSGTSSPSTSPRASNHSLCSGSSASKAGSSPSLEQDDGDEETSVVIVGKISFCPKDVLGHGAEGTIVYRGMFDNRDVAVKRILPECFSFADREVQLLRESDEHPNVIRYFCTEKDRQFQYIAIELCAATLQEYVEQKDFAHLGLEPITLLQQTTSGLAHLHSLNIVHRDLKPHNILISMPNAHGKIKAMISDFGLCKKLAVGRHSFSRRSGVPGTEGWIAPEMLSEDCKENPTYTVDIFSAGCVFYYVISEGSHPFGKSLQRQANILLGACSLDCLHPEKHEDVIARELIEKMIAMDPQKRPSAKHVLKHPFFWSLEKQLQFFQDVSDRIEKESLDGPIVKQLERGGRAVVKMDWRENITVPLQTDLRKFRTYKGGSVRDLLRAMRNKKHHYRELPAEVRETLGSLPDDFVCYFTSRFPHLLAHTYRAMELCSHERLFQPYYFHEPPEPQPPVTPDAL
compound,measurement,value
Cc1c(Br)c(=O)oc2c(C=O)c(O)ccc12,EC50,< 10 µM
O=Cc1c(O)ccc2cc(-c3ccc(Br)cc3)c(=O)oc12,EC50,> 10 µM
Cc1c(-c2ccc(C(=O)N3CCN(C)CC3)cc2)c(=O)oc2c(C=O)c(O)ccc12,EC50,< 10 µM
CCN(CC)CCc1c(C)c2ccc(O)c(C=O)c2oc1=O,EC50,> 10 µM
COc1cc2c(C)c(Br)c(=O)oc2c(C=O)c1O,EC50,< 10 µM
Cc1c(Br)c(=O)oc2c(C=O)c(O)c(F)cc12,EC50,< 10 µM
Cc1c(-c2cccc(C(=O)N3CCOCC3)c2)c(=O)oc2c(C=O)c(O)ccc12,EC50,< 10 µM
Cc1c(Cc2ccccc2)c(=O)oc2c(C=O)c(O)c(O)cc12,EC50,> 10 µM
Cc1c(-c2ccc(C(=O)N3CCCC3)cc2)c(=O)oc2c(C=O)c(O)ccc12,EC50,< 10 µM
Cc1c(-c2ccc(C(=O)N3CCC(C)CC3)cc2)c(=O)oc2c(C=O)c(O)ccc12,EC50,< 10 µM
Cc1c(-c2cccc(C(=O)N3CCCC3)c2)c(=O)oc2c(C=O)c(O)ccc12,EC50,> 10 µM
Cc1cc(=O)oc2c(C=O)c(O)c(F)cc12,EC50,< 10 µM
Cc1c(-c2ccc(N3CCN(C)CC3)cc2)c(=O)oc2c(C=O)c(O)c(F)cc12,EC50,< 10 µM
COc1cc2c(C)c(-c3ccc(C(=O)N4CCOCC4)cc3)c(=O)oc2c(C=O)c1O,EC50,< 10 µM
Cc1nc(N2CCc3c(ccc(O)c3C=O)C2)sc1C(=O)N1CCOCC1,EC50,> 10 µM
O=Cc1c(O)ccc2nc(-c3cccc(C(=O)N4CCOCC4)c3)ccc12,EC50,< 10 µM
CC1CCN(C(=O)c2ccc(-c3ccc4c(C=O)c(O)ccc4n3)cc2)CC1,EC50,> 10 µM
O=Cc1c(O)ccc2nc(-c3ccc(C(=O)N4CCCC4)cc3)ccc12,EC50,< 10 µM
O=Cc1c(O)ccc2nc(N3CCC(NC(=O)CN4CCOCC4)C3)ccc12 (stereo not given),EC50,< 10 µM
CC(=O)NC1CCN(c2ccc3c(C=O)c(O)ccc3n2)C1 (stereo not given),EC50,< 10 µM
CN1CCN(C2CCN(c3nc4ccc(O)c(C=O)c4s3)C2)CC1 (stereo not given),EC50,> 10 µM
CC(C)N1CCN(c2nc3ccc(O)c(C=O)c3s2)CC1,EC50,> 10 µM
CN1CCN(C(=O)c2ccc(-c3nc4ccc(O)c(C=O)c4s3)s2)CC1,EC50,> 10 µM
CC1CCN(C(=O)c2ccc(-c3nc4ccc(O)c(C=O)c4s3)cc2)CC1,EC50,> 10 µM
O=Cc1c(O)ccc2nc(-c3ccc(C(=O)O)cc3)[nH]c12,EC50,> 10 µM
COC(=O)c1ccc(-c2nc3ccc(O)c(C=O)c3[nH]2)cc1,EC50,> 10 µM
O=Cc1c(O)ccc2nc(-c3ccc(C(=O)NCCN4CCOCC4)cc3)[nH]c12,EC50,> 10 µM
O=Cc1c(O)ccc2nc(-c3ccc(C(=O)N4CCOCC4)cc3)[nH]c12,EC50,> 10 µM
CN1CCN(C(=O)c2ccc(-c3nc4ccc(O)c(C=O)c4[nH]3)cc2)CC1,EC50,> 10 µM
Cc1c(CCC(=O)N2CCOCC2)c(=O)oc2c(C=O)c(O)ccc12,EC50,< 10 µM
